# Test results from patent US20050026783A1, “Herbicide combinations comprising specific sulfonamides” (priority 2003, published 2005).
# Where two headings read alike, the source gives them in different places.
# Legend:
# [1] = test system: Veronica hederifolia; assay type: in vivo; conditions: field trial, scored about 4 weeks after application, mean of 2-4 plots
# Description: (§1) The seeds or rhizome pieces of the harmful plants and the useful plants were laid out or were present in the soil, and they were grown under natural outdoor conditions. Treatment with the active compounds or active compound combinations was carried out […] before and/or after the emergence of the plants, generally at the 2- to 4-leaf stage, in various dosages using a water application rate of 100 to 400 l/ha (converted).
# (§2) After the application (about 4 weeks after the application), the effectiveness of the active compounds or active compound combinations was scored visually by comparing the treated plots to untreated control plots. During scoring, damage and development of all above-ground parts of plants was assessed. Scoring was carried out using a percentage scale (100% effect=all plants have died; 50% effect=50% of the plants and the green parts of the plants have died; 0% effect=no effect observed=like control plot). In each case, the mean score of 2-4 plots was calculated.
# (§3) The results are shown in the table below; the effect of the individual application of active compounds (A+B) and C being stated in brackets.
# [2] = test system: Triticum aestivum; assay type: in vivo; conditions: field trial, scored about 4 weeks after application, mean of 2-4 plots
# Description: as §1, §2, §3
# [3] = application rate 15 g of active substance/hectare
# [4] = application rate 20 g of active substance/hectare
# [5] = application rate 80 g of active substance/hectare
smiles,measurement,setting,value
"COc1cc(OC)nc(NC(=O)NS(=O)(=O)N(C)S(C)(=O)=O)n1 [amidosulfuron, 1-(4,6-dimethoxypyrimidin-2-yl)-3-mesyl-(methyl)sulfamoylurea]",Veronica hederifolia % effect,[1]; [3],20%
same,Triticum aestivum % damage,[2]; [3],0%
CCCOc1nn(C(=O)[N-]S(=O)(=O)c2ccccc2C(=O)OC)c(=O)n1C.[Na+] [propoxycarbazone-sodium],Veronica hederifolia % effect,[1]; [4],25%
same,Triticum aestivum % damage,[2]; [4],1%
CCCCCCCC(=O)Oc1c(I)cc(C#N)cc1I [ioxynil-octanoate],Veronica hederifolia % effect,[1]; [5],45%
same,Triticum aestivum % damage,[2]; [5],0%
